Assay results taken from patent US8618289B2 (Ambit Biosciences Corporation, priority 2008, dated 2013).
Where two headings read alike, the source gives them in different places.

What was measured:
[1] = test system: 290 distinct kinases tested excluding mutant variants (321 in the larger panel)
RAF kinases [2] = molecular target: T1, RAF kinases (Homo sapiens, UniProt P15056, V600E); settings: read-out: BRAF V600E Kd; BRAF V600E
[3] = test system: MEK1 phosphorylation in the A375 human melanoma cell line; assay: cells; settings: A-375, read-out: pMEK IC50
Experimental: A375 cells (from American Type Culture Collection) were plated at 50,000 cells per well in DMEM (Mediatech) with 10% fetal bovine serum (Omega Scientific) into a 96 well plate and incubated overnight in a 37° C. incubator with 10% CO2. The cells were then washed with PBS and the medium replaced with 0.5% FBS for incubation overnight. […] The cells were incubated with compound or control for two hours at 37° C. The compound solution was aspirated off and the cells washed with cold PBS. […] The plate was centrifuged for 30 minutes to pellet out the cell debris. The cleared lysates were transferred to a 96-well Nunc plate and the ELISA protocol described by the manufacturer in Catalog #KHO0321 or KHO0291 was followed.

RAF kinases [4] = molecular target: T2, RAF kinases (Homo sapiens, UniProt P04049); assay: biochemical
RAF kinases [5] = molecular target: T3, RAF kinases (Homo sapiens, UniProt P15056); assay: biochemical
A375 cells = assay: cells; settings: Homo sapiens, A-375, read-out: A375 Viability EC50
RAF kinases [6] = molecular target: T2, RAF kinases; settings: read-out: RAF1 Kd; RAF1
RAF kinases [7] = molecular target: T3, RAF kinases; settings: read-out: BRAF WT Kd; BRAF WT
RAF kinases [8] = molecular target: T1, RAF kinases; assay: biochemical
[9] = no asterisk: panel of 290 distinct kinases
[10] = asterisk: panel of 321 distinct kinases

T3 sequence (P15056 whole entry): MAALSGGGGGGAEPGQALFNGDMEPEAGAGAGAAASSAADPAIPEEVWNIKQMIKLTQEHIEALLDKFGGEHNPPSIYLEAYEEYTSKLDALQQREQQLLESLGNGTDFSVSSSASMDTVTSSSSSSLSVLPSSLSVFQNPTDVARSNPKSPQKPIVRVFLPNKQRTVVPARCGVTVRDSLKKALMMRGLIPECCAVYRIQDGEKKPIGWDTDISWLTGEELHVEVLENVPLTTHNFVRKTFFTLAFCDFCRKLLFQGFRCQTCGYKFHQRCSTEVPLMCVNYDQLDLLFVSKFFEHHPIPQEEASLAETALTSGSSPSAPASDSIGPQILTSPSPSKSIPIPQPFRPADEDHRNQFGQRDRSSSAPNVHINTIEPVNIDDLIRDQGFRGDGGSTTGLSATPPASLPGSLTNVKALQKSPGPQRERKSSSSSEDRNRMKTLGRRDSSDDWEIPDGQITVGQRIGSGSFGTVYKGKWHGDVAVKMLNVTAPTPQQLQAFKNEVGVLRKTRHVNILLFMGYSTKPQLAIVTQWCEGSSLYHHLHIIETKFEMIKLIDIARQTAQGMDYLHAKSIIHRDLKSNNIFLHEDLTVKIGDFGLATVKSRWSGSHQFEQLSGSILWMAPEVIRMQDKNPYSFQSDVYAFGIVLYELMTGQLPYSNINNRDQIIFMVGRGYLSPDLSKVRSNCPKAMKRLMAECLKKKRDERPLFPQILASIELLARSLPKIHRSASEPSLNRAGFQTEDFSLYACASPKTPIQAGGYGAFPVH
T1 sequence (P15056 whole entry V600E): as the sequence (P15056 whole entry) above, with V600E counted along it
T2 sequence (P04049 whole entry): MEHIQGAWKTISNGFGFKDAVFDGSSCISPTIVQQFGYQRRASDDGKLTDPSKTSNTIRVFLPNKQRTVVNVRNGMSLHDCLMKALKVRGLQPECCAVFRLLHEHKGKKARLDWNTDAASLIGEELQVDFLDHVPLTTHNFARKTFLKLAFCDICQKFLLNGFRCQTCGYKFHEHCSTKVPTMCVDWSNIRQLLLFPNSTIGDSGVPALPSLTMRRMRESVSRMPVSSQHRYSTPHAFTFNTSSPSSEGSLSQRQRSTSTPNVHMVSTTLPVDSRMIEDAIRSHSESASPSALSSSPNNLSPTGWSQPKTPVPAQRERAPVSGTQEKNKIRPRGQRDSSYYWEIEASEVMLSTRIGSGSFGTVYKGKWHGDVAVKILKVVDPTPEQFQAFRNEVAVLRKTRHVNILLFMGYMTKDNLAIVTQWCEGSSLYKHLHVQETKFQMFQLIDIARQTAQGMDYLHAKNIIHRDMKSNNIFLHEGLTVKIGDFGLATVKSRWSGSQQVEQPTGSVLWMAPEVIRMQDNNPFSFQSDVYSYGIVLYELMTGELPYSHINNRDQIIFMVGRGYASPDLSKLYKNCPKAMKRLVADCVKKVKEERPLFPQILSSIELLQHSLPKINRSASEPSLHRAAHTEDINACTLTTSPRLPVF

Compound | S35 [1, 9] | Kd (RAF kinases [2]) | IC50 [3] | Kd (RAF kinases [4]) | Kd (RAF kinases [5]) | S35 [1, 10] | EC50 (A375 cells) | Kd (RAF kinases [6]) | Kd (RAF kinases [7]) | Kd (RAF kinases [8])
COc1cc(OC2CCOCC2)c2c(Sc3cccc(NC(=O)Nc4cc(C(C)(C)C)on4)c3)ncnc2c1 | C (0.20 < C ≦ 0.40) |  |  |  |  |  |  |  |  | 
COc1cc2ncnc(Oc3cccc(NC(=O)Nc4cc(C(C)(C)C)nn4-c4ccncc4)c3)c2cc1OC [Ex336, 1-(3-tert-butyl-1-(pyridin-4-yl)-1H-pyrazol-5-yl)-3-(3-(6,7-dimethoxyquinazolin-4-yloxy)phenyl)urea] | D (D > 0.40) | < 250 nM | < 250 nM | 500 to 1000 nM | 500 to 1000 nM |  |  |  |  | 
COc1cc2ncnc(Sc3cccc(NC(=O)Nc4cc(C(F)(F)F)n(-c5ccccc5)n4)c3)c2cc1OC [Ex 170, 1-[3-(6,7-dimethoxyquinazolin-4-ylthio)phenyl]-3-[1-phenyl-5-(trifluoromethyl)-1H-pyrazol-3-yl]urea] |  |  | 250 to 500 nM |  |  | B* (0.10 < B ≦ 0.20) | 250 to 500 nM |  |  | 
COc1cc2ncnc(Sc3cccc(NC(=O)Nc4cc(C(F)(F)F)n(C)n4)c3)c2cc1OC [Ex 194, 1-[3-(6,7-dimethoxyquinazolin-4-ylthio)phenyl]-3-[1-methyl-5-(trifluoromethyl)-1H-pyrazol-3-yl]urea] |  |  | 250 to 500 nM |  |  | C* (0.20 < C ≦ 0.40) | 500 to 1000 nM |  |  | 
COc1cc2c(Sc3cccc(NC(=O)Nc4cc(C(C)(C)F)no4)c3)ncnc2cc1OCCN1CCOCC1 [Ex 248, 1-(3-(2-fluoropropan-2-yl)isoxazol-5-yl)-3-(3-(6-methoxy-7-(2-morpholinoethoxy)quinazolin-4-ylthio)phenyl)urea] |  | < 250 nM | 250 to 500 nM | 250 to 500 nM | 250 to 500 nM | C* (0.20 < C ≦ 0.40) | > 1000 nM |  |  | 
COc1cc2ncnc(Oc3ccc(Cl)c(NC(=O)Nc4cc(C(F)(F)F)nn4-c4ccccc4)c3)c2cc1OC [Ex 300, 1-(2-chloro-5-(6,7-dimethoxyquinazolin-4-yloxy)phenyl)-3-(1-phenyl-3-(trifluoromethyl)-1H-pyrazol-5-yl)urea] |  |  | 250 to 500 nM |  |  |  | > 1000 nM | > 1000 nM | > 1000 nM | 500 to 1000 nM
COc1cc2ncnc(Oc3cccc(NC(=O)Nc4cc(C(C)(C)CN5CCOCC5)on4)c3)c2cc1OC [Ex 302, 1-(3-(6,7-dimethoxyquinazolin-4-yloxy)phenyl)-3-(5-(2-methyl-1-morpholinopropan-2-yl)isoxazol-3-yl)urea] |  |  | > 1000 nM |  |  |  | > 1000 nM | > 1000 nM | > 1000 nM | 250 to 500 nM
COc1cc2ncnc(Oc3cccc(NC(=O)Nc4cc(C(F)(F)C(F)(F)F)nn4-c4ccccc4)c3)c2cc1OC [Ex 304, 1-(3-(6,7-dimethoxyquinazolin-4-yloxy)phenyl)-3-(3-(perfluoroethyl)-1-phenyl-1H-pyrazol-5-yl)urea] |  |  | 250 to 500 nM |  |  |  | < 250 nM | > 1000 nM | > 1000 nM | 250 to 500 nM
COc1cc2ncnc(Oc3cccc(NC(=O)Nc4cc(C(C)(C)C)nn4-c4cccnc4C)c3)c2cc1OC [Ex 305, 1-(3-tert-butyl-1-(2-methylpyridin-3-yl)-1H-pyrazol-5-yl)-3-(3-(6,7-dimethoxyquinazolin-4-yloxy)phenyl)urea] | D (D > 0.40) | < 250 nM | < 250 nM | 250 to 500 nM | 500 to 1000 nM |  | < 250 nM |  |  | 
COc1cc2ncnc(Oc3cccc(NC(=O)Nc4cc(C(C)(C)C#N)nn4-c4ccccc4)c3)c2cc1OC [Ex 308, 1-(3-(2-cyanopropan-2-yl)-1-phenyl-1H-pyrazol-5-yl)-3-(3-(6,7-dimethoxyquinazolin-4-yloxy)phenyl)urea] | D (D > 0.40) | < 250 nM | < 250 nM | 250 to 500 nM | 250 to 500 nM |  | 250 to 500 nM |  |  | 
COc1cc2ncnc(Oc3cccc(NC(=O)Nc4cc(C(C)(C)C)nn4-c4ccc(C)nc4)c3)c2cc1OC [Ex 312, 1-(3-tert-butyl-1-(6-methylpyridin-3-yl)-1H-pyrazol-5-yl)-3-(3-(6,7-dimethoxyquinazolin-4-yloxy)phenyl)urea] | D (D > 0.40) | < 250 nM | < 250 nM | 250 to 500 nM | 500 to 1000 nM |  | < 250 nM |  |  | 
COc1cc2ncnc(Oc3cccc(NC(=O)Nc4cc(C(C)(C)C)nn4-c4cc[nH]c(=O)c4)c3)c2cc1OC [Ex 313, 1-(3-tert-butyl-1-(2-oxo-1,2-dihydropyridin-4-yl)-1H-pyrazol-5-yl)-3-(3-(6,7-dimethoxyquinazolin-4-yloxy)phenyl)urea] | D (D > 0.40) | < 250 nM | 250 to 500 nM | 250 to 500 nM | 250 to 500 nM |  | 500 to 1000 nM |  |  | 
COc1cc2ncnc(Oc3cccc(NC(=O)Nc4cc(C(C)C)nn4-c4cncc(F)c4)c3)c2cc1OC [Ex 314, 1-(3-(6,7-dimethoxyquinazolin-4-yloxy)phenyl)-3-(1-(5-fluoropyridin-3-yl)-3-isopropyl-1H-pyrazol-5-yl)urea] | D (D > 0.40) | < 250 nM | 250 to 500 nM | 250 to 500 nM | 500 to 1000 nM |  | < 250 nM |  |  | 
COc1cc2ncnc(Oc3cccc(NC(=O)Nc4cc(C(C)(F)F)nn4-c4ccccc4)c3)c2cc1OC [Ex 318, 1-(3-(1,1-difluoroethyl)-1-phenyl-1H-pyrazol-5-yl)-3-(3-(6,7-dimethoxyquinazolin-4-yloxy)phenyl)urea] | C (0.20 < C ≦ 0.40) | < 250 nM | < 250 nM | 250 to 500 nM | 250 to 500 nM |  | < 250 nM |  |  | 
COc1cc2ncnc(Sc3cccc(NC(=O)Nc4cc(C(C)(F)F)nn4-c4ccccc4)c3)c2cc1OC [Ex 319, 1-(3-(1,1-difluoroethyl)-1-phenyl-1H-pyrazol-5-yl)-3-(3-(6,7-dimethoxyquinazolin-4-ylthio)phenyl)urea] | C (0.20 < C ≦ 0.40) | < 250 nM | < 250 nM | 250 to 500 nM | 500 to 1000 nM |  | < 250 nM |  |  | 
COc1cc2ncnc(Oc3cccc(NC(=O)Nc4cc(C(C)(C)C)nn4-c4cccnc4)c3)c2cc1OC [Ex 322, 1-(3-tert-butyl-1-(pyridin-3-yl)-1H-pyrazol-5-yl)-3-(3-(6,7-dimethoxyquinazolin-4-yloxy)phenyl)urea] | D (D > 0.40) | < 250 nM | < 250 nM | 250 to 500 nM | 250 to 500 nM |  |  |  |  | 
COc1cc2ncnc(Sc3cccc(NC(=O)Nc4cc(C(C)(C)C)nn4-c4cccnc4)c3)c2cc1OC [Ex 323, 1-(3-tert-butyl-1-(pyridin-3-yl)-1H-pyrazol-5-yl)-3-(3-(6,7-dimethoxyquinazolin-4-ylthio)phenyl)urea] | D (D > 0.40) | < 250 nM | < 250 nM | 500 to 1000 nM | 500 to 1000 nM |  | 250 to 500 nM |  |  | 
COc1cc2ncnc(Oc3cccc(NC(=O)Nc4cc(C(C)C)nn4-c4ccccc4)c3)c2cc1OC [Ex 324, 1-(3-(6,7-dimethoxyquinazolin-4-yloxy)phenyl)-3-(3-isopropyl-1-phenyl-1H-pyrazol-5-yl)urea] | D (D > 0.40) | < 250 nM | < 250 nM | 250 to 500 nM | 250 to 500 nM |  | < 250 nM |  |  | 
COc1cc2ncnc(Oc3cccc(NC(=O)Nc4cc(C(C)(C)C)nn4-c4cncc(F)c4)c3)c2cc1OC [Ex 326, 1-(3-tert-butyl-1-(5-fluoropyridin-3-yl)-1H-pyrazol-5-yl)-3-(3-(6,7-dimethoxyquinazolin-4-yloxy)phenyl)urea] | D (D > 0.40) | < 250 nM | < 250 nM | 500 to 1000 nM | 500 to 1000 nM |  |  |  |  | 
COc1cc2ncnc(Sc3cccc(NC(=O)Nc4cc(C(C)(C)C)nn4-c4cncc(F)c4)c3)c2cc1OC [Ex 327, 1-(3-tert-butyl-1-(5-fluoropyridin-3-yl)-1H-pyrazol-5-yl)-3-(3-(6,7-dimethoxyquinazolin-4-ylthio)phenyl)urea] | D (D > 0.40) | < 250 nM | < 250 nM | 500 to 1000 nM | 500 to 1000 nM |  |  |  |  | 
COc1cc2ncnc(Oc3cccc(NC(=O)Nc4cc(C(C)(C)C)nn4-c4ccc(C#N)cc4)c3)c2cc1OC [Ex 328, 1-(3-tert-butyl-1-(4-cyanophenyl)-1H-pyrazol-5-yl)-3-(3-(6,7-dimethoxyquinazolin-4-yloxy)phenyl)urea] | D (D > 0.40) | < 250 nM | < 250 nM | 250 to 500 nM | 250 to 500 nM |  |  |  |  | 
COc1cc2ncnc(Sc3cccc(NC(=O)Nc4cc(C(C)(C)C)nn4CC(C)C)c3)c2cc1OC [Ex 333, 1-(3-tert-butyl-1-isobutyl-1H-pyrazol-5-yl)-3-(3-(6,7-dimethoxyquinazolin-4-ylthio)phenyl)urea] | C (0.20 < C ≦ 0.40) | < 250 nM | 500 to 1000 nM | 250 to 500 nM | 250 to 500 nM |  |  |  |  | 
COc1cc2ncnc(Sc3cccc(NC(=O)Nc4cc(C(C)(C)C)nn4-c4ccncc4)c3)c2cc1OC [Ex 337, 1-(3-tert-butyl-1-(pyridin-4-yl)-1H-pyrazol-5-yl)-3-(3-(6,7-dimethoxyquinazolin-4-ylthio)phenyl)urea] | D (D > 0.40) | < 250 nM | < 250 nM | 500 to 1000 nM | 500 to 1000 nM |  |  |  |  | 
